Source: patent publication US20140366440A1, “METHOD FOR PRODUCING CLONE SEEDLINGS” (OKAYAMA PREFECTURE, priority 2009, published 2014)

Tests used:
E. uro-grandis B = test: Rooting of cuttings, oxidized glutathione solution sprayed to phylloplane; format: in vivo, crossbreed of eucalyptus urophylla and eucalyptus grandis; conditions: for Rooting rate (%): 88 test pieces; for Number of rooted shoots: of 88 test pieces
Description: Oxidized glutathione was applied to a phylloplane of a cutting. That is, the cutting was prepared in the same way as that in Example 5, except that a mother tree of the cutting was E. uro-grandis (Line name: B). Then a base of the cutting was planted to the supporter similar to Example 5. An oxidized glutathione solution was prepared in the same way as Example 5, and, immediately after the base was planted, the oxidized glutathione solution was sprayed to the phylloplane in the form of a mist by use of a spray etc. A spray amount of the glutathione solution was set to about 1.1 ml per shoot. A breeding condition after planting the shoot was similar to Example 5, and a rooting rate was calculated in the same way as Example 5.
A seedling was bred in the same way as Example 8, except that a solution having an oxidized glutathione concentration of 500 mg/L was used as the oxidized glutathione solution.
A seedling was bred in the same way as Example 8, except that a solution having an oxidized glutathione concentration of 1000 mg/L was used as the oxidized glutathione solution.

[1] = test system: Mango (Mangifera Indica Linn. variety name: Irwin); test: Rooting of mango cuttings in rooting medium containing oxidized glutathione; format: in vivo; conditions: one and half months
Excerpt: A mango (Mangifera Indica Linn. variety name: Irwin) was used as a material of a cutting. Specifically, a cutting including one to three joints and one to five leaves was cut from a branch of a mother tree, and each leaf was partially cut off. Furthermore, the material was wounded by a cutter. The cutting was thus prepared.
The shoot thus obtained was washed with running water over night, and was dipped into an insecticide solution such as “Kotetsu”. Then the shoot had been planted to a supporter infiltrated with a four-diluted MS medium (Composition: ammonium nitrate of 412.5 mg/L, potassium nitrate of 475 mg/L, sodium dihydrogenphosphate of 42.52 mg/L, potassium iodide of 0.21 mg/L, etc. Note that a carbon source other than glutathione was not added to this medium.) to which the oxidized glutathione of 50 mg/L, STS (AgS4O6) of 5 μM serving as a silver ion source, ascorbic acid of 50 mg/L serving an antioxidant, and IBA of 10 mg/L serving as a plant hormone were added. In this case, natural soil such as sand and akadama soil; or a composite soil of vermiculite, perlite, peat moss, etc. was used as the supporter. […]
Ten to twenty shoots were planted per culture container. A rooting rate was calculated from the number of test pieces of the shoot and the number of shoots (the number of rooted shoots) which had been rooted after the foliage was cultured for one and half months.

Tea plant = test: Rooting of tea plant cuttings, granule oxidized glutathione mixed with composite soil; format: in vivo; conditions: mix with soil; for Rooting rate (%): 462 test pieces; for Number of rooted shoots: of 462 test pieces
Description: Oxidized glutathione was prepared in such a way that 1% granule oxidized glutathione was mixed with a composite soil was used. Specifically, 1% granule oxidized glutathione of 15 g was mixed with a composite soil of peat moss and vermiculite (5.5 L), and was then put into a seedling pot (3 cm in inner diameter×15 cm in height×66 holes). This seedling pot served as a supporter. A four-diluted MS medium (Composition: ammonium nitrate of 412.5 mg/L, potassium nitrate of 475 mg/L, sodium dihydrogenphosphate of 42.52 mg/L, and potassium iodide of 0.21 mg/L. Note that a carbon source was not added to this medium.) to which IBA serving as a plant hormone of 10 mg/L was added was sprayed from the above the seedling pot by use of a watering can so that the supporter was soaked with the four-diluted MS medium.
Tea plant was used as a material for a cutting. Specifically, a cutting grown to have a length of about 5 cm to 20 cm, about one to three joints, about one to six leaves was cut out from a mother tree, and a tip of each leaf was cut off. In this way, the cutting was adjusted and prepared.
A base of the cutting thus adjusted and prepared was planted to a supporter (66 cuttings were planted per seedling pot). After this planting, the shoot was cultured for one and half months in a carbon dioxide gas concentration of 1000 ppm, a temperature of 25° C., and a humidity of 60% having a wavelength component of 650 nm to 670 nm to a wavelength component of 450 nm to 470 nm at a ratio of 8.2:1.8 under irradiation of red light having photosynthesis photon flux density of 51.3 μmol/m^2/S. After that, the seedling pot was moved to a green house, and was bred for two and half months. In the green house, a high humidity (80% or more) was kept by frequently spraying mist. After two and half month from this moving, a rooting rate was calculated from the number of rooted cuttings.
The culture was carried out in the same way as Example 12, except that an amount of 1% granule oxidized glutathione to be added to a composite soil (5.5 L) was set to 75 g.

[2] = Example 9: 500 mg/L, sprayed to phylloplane
[3] = Example 10: 1000 mg/L, sprayed to phylloplane

## oxidized glutathione
E. uro-grandis B; Example 8: 200 mg/L, sprayed to phylloplane (about 1.1 ml per shoot), three weeks
  Rooting rate (%): 54.5%
E. uro-grandis B; Example 8: 200 mg/L, sprayed to phylloplane
  Number of rooted shoots: 48
E. uro-grandis B; [2]
  Rooting rate (%): 59.1%
  Number of rooted shoots: 52
E. uro-grandis B; [3]
  Rooting rate (%): 60.2%
  Number of rooted shoots: 53
[1]; Example 11: 50 mg/L in rooting medium, of 26 test pieces
  Number of rooted shoots: 7
[1]; Example 11: 50 mg/L, adding glutathione to rooting medium (with STS, ascorbic acid, IBA 10 mg/L), 26 test pieces
  Rooting rate (%): 26.9%
Tea plant; Example 12: 3 mg/L in composite soil (15 g of 1% granule per 5.5 L)
  Rooting rate (%): 96.0%
Tea plant; Example 12: 3 mg/L in composite soil
  Number of rooted shoots: 443
Tea plant; Example 13: 15 mg/L in composite soil (75 g of 1% granule per 5.5 L)
  Rooting rate (%): 99.6%
Tea plant; Example 13: 15 mg/L in composite soil
  Number of rooted shoots: 461
